Reference: PubChem BioAssay AID2060889 (Molecular Pharmacology Branch, DTP, NCI, 2025)
Each block holds one compound with its values, some of them ahead of it.

Test system: LG0567-F671-PDC complex spheroids viability
Experiment: Anticancer human tumor LG0567-F671-PDC patient-derived lung adenocarcinoma cell line growth inhibition [RAS]
Conditions: for viability, T/C: stronger effect = lower value
Method in brief: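 Tumour cells grown as complex spheroids with HUVEC endothelial cells and mesenchymal stem cells, treated with RAS pathway inhibitor combinations. Each agent spans half-log steps from near clinical Cmax, or 10 microM where Cmax is unknown.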

[1] = curve of first compound, second compound 0.0316 µM
[2] = curve of first compound, second compound 0.1 µM
[3] = curve of first compound, second compound 0.316 µM
[4] = curve of first compound, second compound 1 µM
[5] = curve of first compound, second compound 3.16 µM
[6] = curve of first compound, second compound 10 µM
[7] = second compound 0.0316 µM, first compound 0.0316 µM
[8] = second compound 0.0316 µM, first compound 0.1 µM
[9] = second compound 0.0316 µM, first compound 0.316 µM
[10] = second compound 0.0316 µM, first compound 1 µM
[11] = second compound 0.0316 µM, first compound 3.16 µM
[12] = second compound 0.0316 µM, first compound 10 µM
[13] = second compound 0.1 µM, first compound 0.0316 µM
[14] = second compound 0.1 µM, first compound 0.1 µM
[15] = second compound 0.1 µM, first compound 0.316 µM
[16] = second compound 0.1 µM, first compound 1 µM
[17] = second compound 0.1 µM, first compound 3.16 µM
[18] = second compound 0.1 µM, first compound 10 µM
[19] = second compound 0.316 µM, first compound 0.0316 µM
[20] = second compound 0.316 µM, first compound 0.1 µM
[21] = second compound 0.316 µM, first compound 0.316 µM
[22] = second compound 0.316 µM, first compound 1 µM
[23] = second compound 0.316 µM, first compound 3.16 µM
[24] = second compound 0.316 µM, first compound 10 µM
[25] = second compound 1 µM, first compound 0.0316 µM
[26] = second compound 1 µM, first compound 0.1 µM
[27] = second compound 1 µM, first compound 0.316 µM
[28] = second compound 1 µM, first compound 1 µM
[29] = second compound 1 µM, first compound 3.16 µM
[30] = second compound 1 µM, first compound 10 µM
[31] = second compound 3.16 µM, first compound 0.0316 µM
[32] = second compound 3.16 µM, first compound 0.1 µM
[33] = second compound 3.16 µM, first compound 0.316 µM
[34] = second compound 3.16 µM, first compound 1 µM
[35] = second compound 3.16 µM, first compound 3.16 µM
[36] = second compound 3.16 µM, first compound 10 µM
[37] = second compound 10 µM, first compound 0.0316 µM
[38] = second compound 10 µM, first compound 0.1 µM
[39] = second compound 10 µM, first compound 0.316 µM
[40] = second compound 10 µM, first compound 1 µM
[41] = second compound 10 µM, first compound 3.16 µM
[42] = second compound 10 µM, first compound 10 µM
[43] = second compound 0.0316 µM, first compound 0.00316 µM
[44] = second compound 0.0316 µM, first compound 0.01 µM
[45] = second compound 0.1 µM, first compound 0.00316 µM
[46] = second compound 0.1 µM, first compound 0.01 µM
[47] = second compound 0.316 µM, first compound 0.00316 µM
[48] = second compound 0.316 µM, first compound 0.01 µM
[49] = second compound 1 µM, first compound 0.00316 µM
[50] = second compound 1 µM, first compound 0.01 µM
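Also: spheroids exposed to compound for seven days before readout.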
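For IC50 in this document: luminescence signal used as a proxy for viable cells.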

Compound: O=C(c1ccc(F)c(F)c1Nc1ccc(I)cc1F)N1CC(O)([C@@H]2CCCCN2)C1 + C=CC(=O)N1CCN(c2nc(OCC3CCCN3C)nc3c(F)c(-c4nc(N)cc(C)c4C(F)(F)F)c(Cl)cc23)C(C)C1
- IC50 (curve of first compound, second compound 0.00316 µM): < 3.16 nM
- IC50 (curve of first compound, second compound 0.01 µM): < 3.16 nM
- IC50 [1]: < 3.16 nM
- IC50 [2]: < 3.16 nM
- IC50 [3]: < 3.16 nM
- IC50 [4]: < 3.16 nM
- viability, T/C (second compound 0.00316 µM, first compound 0.00316 µM): 15.6%
- viability, T/C (second compound 0.00316 µM, first compound 0.01 µM): 16.9%
- viability, T/C (second compound 0.00316 µM, first compound 0.0316 µM): 8.91%
- viability, T/C (second compound 0.00316 µM, first compound 0.1 µM): 8.75%
- viability, T/C (second compound 0.00316 µM, first compound 0.316 µM): 3.51%
- viability, T/C (second compound 0.00316 µM, first compound 1 µM): 1.58%
- viability, T/C (second compound 0.01 µM, first compound 0.00316 µM): 12.4%
- viability, T/C (second compound 0.01 µM, first compound 0.01 µM): 11.6%
- viability, T/C (second compound 0.01 µM, first compound 0.0316 µM): 10.7%
- viability, T/C (second compound 0.01 µM, first compound 0.1 µM): 5.03%
- viability, T/C (second compound 0.01 µM, first compound 0.316 µM): 3.8%
- viability, T/C (second compound 0.01 µM, first compound 1 µM): 1.56%
- viability, T/C [43]: 11.8%
- viability, T/C [44]: 8.27%
- viability, T/C [7]: 7.53%
- viability, T/C [8]: 5.24%
- viability, T/C [9]: 3.75%
- viability, T/C [10]: 1.45%
- viability, T/C [45]: 11.5%
- viability, T/C [46]: 9.3%
- viability, T/C [13]: 6.61%
- viability, T/C [14]: 5.01%
- viability, T/C [15]: 2.96%
- viability, T/C [16]: 1.42%
- viability, T/C [47]: 12.2%
- viability, T/C [48]: 9.6%
- viability, T/C [19]: 6.94%
- viability, T/C [20]: 5.35%
- viability, T/C [21]: 3.61%
- viability, T/C [22]: 1.71%
- viability, T/C [49]: 12.3%
- viability, T/C [50]: 10.1%
- viability, T/C [25]: 7.82%
- viability, T/C [26]: 5.94%
- viability, T/C [27]: 4.07%
- viability, T/C [28]: 1.77%

Compound: O=C(c1ccc(F)c(F)c1Nc1ccc(I)cc1F)N1CC(O)([C@@H]2CCCCN2)C1 + C#Cc1c(F)ccc2cc(O)cc(-c3ncc4c(N5CC6CCC(C5)N6)nc(OCC56CCCN5CC(F)C6)nc4c3F)c12
- IC50 [1]: 13.6 nM
- IC50 [2]: 8.46 nM
- IC50 [3]: 5.19 nM
- IC50 [4]: < 3.16 nM
- IC50 [5]: < 3.16 nM
- IC50 [6]: < 3.16 nM
- viability, T/C [43]: 80.2%
- viability, T/C [44]: 53.4%
- viability, T/C [7]: 37%
- viability, T/C [8]: 23%
- viability, T/C [9]: 10.1%
- viability, T/C [10]: 3.93%
- viability, T/C [45]: 64.2%
- viability, T/C [46]: 45.9%
- viability, T/C [13]: 35.4%
- viability, T/C [14]: 19.2%
- viability, T/C [15]: 10.7%
- viability, T/C [16]: 3.38%
- viability, T/C [47]: 52.8%
- viability, T/C [48]: 46.8%
- viability, T/C [19]: 30.7%
- viability, T/C [20]: 17.1%
- viability, T/C [21]: 9.98%
- viability, T/C [22]: 3.87%
- viability, T/C [49]: 34.5%
- viability, T/C [50]: 28%
- viability, T/C [25]: 21.3%
- viability, T/C [26]: 12.1%
- viability, T/C [27]: 6.87%
- viability, T/C [28]: 3.06%
- viability, T/C (second compound 3.16 µM, first compound 0.00316 µM): 17.3%
- viability, T/C (second compound 3.16 µM, first compound 0.01 µM): 14.1%
- viability, T/C [31]: 16.4%
- viability, T/C [32]: 7.89%
- viability, T/C [33]: 3.15%
- viability, T/C [34]: 2.12%
- viability, T/C (second compound 10 µM, first compound 0.00316 µM): 10.5%
- viability, T/C (second compound 10 µM, first compound 0.01 µM): 7.59%
- viability, T/C [37]: 5.41%
- viability, T/C [38]: 2.84%
- viability, T/C [39]: 1.91%
- viability, T/C [40]: 1.49%

Continued, in another order:

- IC50 [1]: > 10000 nM
- IC50 [2]: > 10000 nM
- IC50 [3]: 62.2 nM
- IC50 [4]: < 31.6 nM
- IC50 [5]: < 31.6 nM
- IC50 [6]: < 31.6 nM
Compound: CC(C)NCC(C(=O)N1CCN(c2ncnc3c2C(C)CC3O)CC1)c1ccc(Cl)cc1 (centres undefined) + C#Cc1c(F)ccc2cc(O)cc(-c3ncc4c(N5CC6CCC(C5)N6)nc(OCC56CCCN5CC(F)C6)nc4c3F)c12
- viability, T/C [7]: 93.5%
- viability, T/C [8]: 88.3%
- viability, T/C [9]: 72%
- viability, T/C [10]: 60.1%
- viability, T/C [11]: 63.5%
- viability, T/C [12]: 55%
- viability, T/C [13]: 84.2%
- viability, T/C [14]: 66%
- viability, T/C [15]: 70.6%
- viability, T/C [16]: 51.3%
- viability, T/C [17]: 59.3%
- viability, T/C [18]: 56.4%
- viability, T/C [19]: 50.3%
- viability, T/C [20]: 50.1%
- viability, T/C [21]: 54.7%
- viability, T/C [22]: 35.9%
- viability, T/C [23]: 47%
- viability, T/C [24]: 51.6%
- viability, T/C [25]: 35.4%
- viability, T/C [26]: 29.8%
- viability, T/C [27]: 30%
- viability, T/C [28]: 28.1%
- viability, T/C [29]: 28.2%
- viability, T/C [30]: 31.2%
- viability, T/C [31]: 19.4%
- viability, T/C [32]: 17.9%
- viability, T/C [33]: 19.2%
- viability, T/C [34]: 13.9%
- viability, T/C [35]: 14.9%
- viability, T/C [36]: 13.4%
- viability, T/C [37]: 12.4%
- viability, T/C [38]: 12.7%
- viability, T/C [39]: 11.1%
- viability, T/C [40]: 9.42%
- viability, T/C [41]: 8.58%
- viability, T/C [42]: 5.74%

- IC50 (curve of compound): > 10000 nM
Compound: CC(C)NCC(C(=O)N1CCN(c2ncnc3c2C(C)CC3O)CC1)c1ccc(Cl)cc1 (centres undefined)
- viability, T/C (compound 0.0316 µM): 101% [middle of 4 runs]
- viability, T/C (compound 0.1 µM): 91.3% [middle of 4 runs]
- viability, T/C (compound 0.316 µM): 77.4% [middle of 4 runs]
- viability, T/C (compound 1 µM): 61.6% [middle of 4 runs]
- viability, T/C (compound 10 µM): 63.5% [middle of 4 runs]

- IC50 [1]: 205 nM
- IC50 [2]: 211 nM
- IC50 [3]: 38.6 nM
- IC50 [4]: < 31.6 nM
- IC50 [5]: < 31.6 nM
- IC50 [6]: < 31.6 nM
Compound: CC(Nc1ccc2c(c1)OCCn1cc(N3C(=O)OCC3C(F)F)nc1-2)C(N)=O (centres undefined) + C#Cc1c(F)ccc2cc(O)cc(-c3ncc4c(N5CC6CCC(C5)N6)nc(OCC56CCCN5CC(F)C6)nc4c3F)c12
- viability, T/C [7]: 77.6%
- viability, T/C [8]: 56.2%
- viability, T/C [9]: 46.9%
- viability, T/C [10]: 38.2%
- viability, T/C [11]: 35%
- viability, T/C [12]: 31.9%
- viability, T/C [13]: 73.5%
- viability, T/C [14]: 62.1%
- viability, T/C [15]: 43.2%
- viability, T/C [16]: 32.1%
- viability, T/C [17]: 30.7%
- viability, T/C [18]: 26%
- viability, T/C [19]: 53.1%
- viability, T/C [20]: 38%
- viability, T/C [21]: 31.3%
- viability, T/C [22]: 30.3%
- viability, T/C [23]: 28.4%
- viability, T/C [24]: 22.2%
- viability, T/C [25]: 26.7%
- viability, T/C [26]: 25.6%
- viability, T/C [27]: 20.9%
- viability, T/C [28]: 19.1%
- viability, T/C [29]: 18.3%
- viability, T/C [30]: 14.8%
- viability, T/C [31]: 16.6%
- viability, T/C [32]: 14.6%
- viability, T/C [33]: 11.5%
- viability, T/C [34]: 12.6%
- viability, T/C [35]: 10%
- viability, T/C [36]: 7.52%
- viability, T/C [37]: 9.27%
- viability, T/C [38]: 6.91%
- viability, T/C [39]: 5.66%
- viability, T/C [40]: 5.21%
- viability, T/C [41]: 5.4%
- viability, T/C [42]: 4.6%
